Laboratory results: US9713606B2, “Methods for treating pulmonary emphysema using substituted 2-Aza-bicyclo[2.2.1]heptane-3-carboxylic acid (benzyl-cyano-methyl)-amides inhibitors of cathepsin C” (Boehringer Ingelheim International GmbH, priority 2013, dated 2017)
Read-outs that look alike come from different tables or passages of the source.

Assays:
[1] = Determination of metabolic stability with human liver microsomes; format: in vitro ADME; details: pooled human liver microsomes, 1 mg/ml protein, 1 μM test compound, 37° C.; for half-life at 1 μM: pH 7.6, read-out: In vitro stability in human liver microsome incubations t½
Description: Determination of Metabolic Stability with Human Liver Microsomes

[2] = molecular target: recombinant human Cathepsin K (Homo sapiens (Human), UniProt P43235); assay: Inhibition of human Cathepsin K; format: biochemical; details: substrate Z-Gly-Pro-Arg-AMC
Description: Inhibition of Human Cathepsin K
Materials: Microtiterplates (Optiplate-384 F were purchased from PerkinElmer (Prod. No. 6007270). The substrate Z-Gly-Pro-Arg-AMC was from Biomol (Prod.-No. P-142). L-Cysteine (Prod. No. 168149) was from Sigma. Sodium acetate was from Merck (Prod.-No. 6268.0250), EDTA was from Fluka (Prod.-No. 03680). The inhibitor E-64 was purchased from Sigma (Prod.-No. E3132). The recombinant human Cathepsin K proenzyme was purchased from Biomol (Prod. No. SE-367). All other materials were of highest grade commercially available. […]
5 μL test compound (final concentration 0.1 nM to 100 μM) in aqua bidest (containing 4% DMSO, final DMSO concentration 1%) were mixed with 10 uL of Cathepsin K in assay buffer (final concentration 2 ng/μL) and incubated for 10 min. […] The fluorescence in the wells was determined using a Molecular Devices SpectraMax M5 Fluorescence Reader (Ex 360 nm, Em 460 nm).
Each assay microtiter plate contains wells with vehicle controls (1% DMSO in bidest) as reference for non-inhibited enzyme activity (100% Ctl; high values) and wells with inhibitor (E64 in bidest+1% DMSO, final concentration 1 μM) as controls for background fluorescence (0% Ctl; low values). […]

[3] = molecular target: recombinant human DPPI (Cathepsin C) (Homo sapiens (Human), UniProt P53634); assay: Inhibition of human DPPI (Cathepsin C); format: biochemical; details: substrate Gly-Arg-AMC
Protocol: Inhibition of Human DPPI (Cathepsin C)
Bovine serum albumin (BSA; Prod. No. A3059) and Dithiothreitol (DTT; Prod. No D0632) were from Sigma. […] The DPP1 inhibitor Gly-Phe-DMK was purchased from MP Biomedicals (Prod.-No. 03DK00625). The recombinant human DPPI was purchased from Prozymex. All other materials were of highest grade commercially available.
The following buffers were used: MES buffer: 25 mM MES, 50 mM NaCl, 5 mM DTT, adjusted to pH 6.0, containing 0.1% BSA; TAGZyme Buffer: 20 mM NaH2PO4, 150 mM NaCl adjusted to pH 6.0 with HCl
Then, 5 μL of substrate in MES buffer (final concentration 50 μM) were added. The microtiter plates were then incubated at room temperature for […] Then, the reaction was stopped by adding 10 μL of Gly-Phe-DMK in MES-buffer (final concentration 1 μM).
The analysis of the data was performed by calculating the percentage of fluorescence in the presence of test compound in comparison to the fluorescence of the vehicle control after subtracting the background fluorescence using the following formula: (RFU(sample)−RFU(background))*100/(RFU(control)−RFU(background))
Data from these calculations were used to generate IC50 values for inhibition of DPPI, respectively.

[4] = system: neutrophil elastase activity in U937 cells; assay: Determination of neutrophil elastase activity in U937 cytosolic lysate preparation after incubation with test compound; format: cell-based, human
Protocol: Determination of Neutrophil Elastase Activity in U937 Cytosolic Lysate Preparation after Incubation with Test Compound Materials:
Optiplate 384F were purchased from PerkinElmer (Prod. No. #6007270). 24 well Nunclon cell culture plates (No. 142475) and 96 well plates (No. 267245) were from Nunc. Dimethylsulfoxid (DMSO) was from Sigma (Prod. No. D8418). Nonidet-P40 (NP40) was from USBiological (Prod. No. N3500)
Substrate, specific for Neutrophil elastase, was from Bachem (MeOSuc-Ala-Ala-Pro-Val-AMC; Prod. No. I-1270).
Human neutrophil elastase was from Calbiochem (Prod. No. 324681)
Tris-buffer (100 mM Tris; 1M NaCL; pH 7.5)
Tris-buffer+HSA 0.1%; Human Serum Albumin from Calbiochem (Cat#. 126658)
Serine-protease buffer (20 mM Tris; 100 mM NaCL; pH 7.5)+0.1% HSA
Serine protease lysis buffer: 20 mM Tris-HCL; 100 mM NaCl pH 7.5; +0.2% Nonidet-P40;
PBS: phosphate buffered saline, without Ca and Mg, from Gibco
U937 from ECACC (Cat. No. 85011440) cultured in suspension at 37° C. and 5% CO2.
Cell density: 0.2-1 Mio. Cells/ml.
Medium: RPMI1640 GlutaMAX (No. 61870) with 10% FCS from Gibco
Cell Seeding and Treatment:
Compounds in 100% DMSO were diluted in Medium (-FCS) with 10% DMSO and further diluted according to the experiment planned.
20 μl of the compound solution was transferred in the respective wells of the 24 well plate and diluted with 2 ml cell suspension/well containing 1'10^5 cells/ml (final concentration of DMSO=0.1%). Compound dilution factor=100 […]
Frozen lysates were thawn at 37° C. for 10 minutes and stored on ice. Protein content was determined with Bradford protein assay. […]
The increase in fluorescence (Ex360 nm/Em 460 nm) is determined over 30 minutes with a Molecular Device Spectramax M5 Fluorescence Reader. […] The amount of neutrophil elastase (ng/ml) is calculated using the standard curve and the Spectramax software. […] Percent inhibition in the compound-treated lysate samples is calculated relative to the DMSO-treated control-sample (100−(compound-sample*100)/control-sample)
[…] is calculated using Graphpad Prism; nonlinear fitting (log(inhibitor) vs. response—Variable slope).

[5] = Homo sapiens, U-937, read-out: Reduction of NE-activity in U937 cells IC50

Sequence of recombinant human DPPI (Cathepsin C) (P53634 231-394): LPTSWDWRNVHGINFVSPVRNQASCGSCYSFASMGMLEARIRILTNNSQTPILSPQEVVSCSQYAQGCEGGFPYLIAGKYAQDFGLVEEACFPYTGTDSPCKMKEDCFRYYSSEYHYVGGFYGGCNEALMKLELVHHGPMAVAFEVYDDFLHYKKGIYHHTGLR
Sequence of recombinant human DPPI (Cathepsin C) (P53634 395-463): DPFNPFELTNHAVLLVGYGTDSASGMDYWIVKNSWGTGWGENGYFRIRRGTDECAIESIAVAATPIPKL
Sequence of recombinant human DPPI (Cathepsin C) (P53634 25-134): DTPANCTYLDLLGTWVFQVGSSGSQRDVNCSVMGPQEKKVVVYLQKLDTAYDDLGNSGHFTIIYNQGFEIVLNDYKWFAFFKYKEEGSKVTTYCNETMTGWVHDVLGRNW
Sequence of recombinant human Cathepsin K (P43235 115-329): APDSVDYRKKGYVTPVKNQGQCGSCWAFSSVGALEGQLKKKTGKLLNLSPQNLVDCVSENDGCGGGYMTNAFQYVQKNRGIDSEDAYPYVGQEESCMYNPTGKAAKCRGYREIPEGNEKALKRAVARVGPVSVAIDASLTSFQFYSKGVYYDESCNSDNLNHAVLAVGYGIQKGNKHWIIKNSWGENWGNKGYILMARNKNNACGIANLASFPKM

Compound: CN1C(=O)Cc2ccc(-c3ccc(CC(C#N)NC(=O)[C@H]4N[C@@H]5CC[C@H]4C5)c(F)c3)cc21 (stereo partly drawn) [Example 15]
- In vitro stability in human liver microsome incubations t½ [1]: 2.17 h

Compound: CN1C(=O)Cc2ccc(-c3cc(F)c(C[C@@H](C#N)NC(=O)[C@H]4N[C@@H]5CC[C@H]4C5)cc3F)cc21 [Example 31]
- half-life at 1 μM [1]: 1.5 h

Compound: N#CC(Cc1ccc(-c2cnn(-c3ccccc3)c2)cc1F)NC(=O)[C@H]1N[C@@H]2CC[C@H]1C2 (stereo partly drawn) [Example 78]
- In vitro stability in human liver microsome incubations t½ [1]: 2.17 h

Compound: N#C[C@H](Cc1ccc(N2CCN(CC3CCOC3)CC2)cc1F)NC(=O)[C@H]1N[C@@H]2CC[C@H]1C2 (stereo partly drawn) [Example 154]
- IC50 [2]: 4600 nM
- IC50 [3]: 13.5 nM
- IC50 [4, 5]: 4.6 nM
- half-life at 1 μM [1]: > 2.17 h

Compound: N#C[C@H](Cc1ccc(-c2ccc(S(=O)(=O)N3CCOCC3)cc2)cc1F)NC(=O)[C@H]1N[C@@H]2CC[C@H]1C2 [Example 217]
- IC50 ([4]; read-out: Reduction of NE-activity in U937 cells IC50): 7.5 nM

Compound: CC(C)c1cc(-c2ccc(C[C@@H](C#N)NC(=O)[C@H]3N[C@@H]4CC[C@H]3C4)c(F)c2)ccc1[S+](C)[O-] (stereo partly drawn) [Example 251]
- IC50 [3]: 11.5 nM

Compound: CS(=O)(=O)c1ccc(-c2ccc(C[C@@H](C#N)NC(=O)[C@H]3N[C@@H]4CC[C@H]3C4)c(F)c2)cc1OCC(F)F [Example 252]
- In vitro stability in human liver microsome incubations t½ [1]: 2.17 h

Compound: N#C[C@H](Cc1ccc(N2CCCN3CCCC3C2)cc1F)NC(=O)[C@H]1N[C@@H]2CC[C@H]1C2 (stereo partly drawn) [Example 271]
- In vitro stability in human liver microsome incubations t½ [1]: 2.17 h

Compound: CS(=O)(=O)c1cc(OCC(F)(F)F)cc(-c2ccc(C[C@@H](C#N)NC(=O)[C@H]3N[C@@H]4CC[C@H]3C4)c(F)c2)c1 [Example 276]
- In vitro stability in human liver microsome incubations t½ [1]: 2.17 h

Compound: CN1CCCN(S(=O)(=O)c2ccc(-c3ccc(C[C@@H](C#N)NC(=O)[C@H]4N[C@@H]5CC[C@H]4C5)c(F)c3)cc2)CC1 [Example 340]
- IC50 [4, 5]: 0.8 nM

Compound: CN1CCC(N2C(=O)Cc3ccc(-c4ccc(C[C@@H](C#N)NC(=O)[C@H]5N[C@@H]6CC[C@H]5C6)c(F)c4)cc32)CC1 [Example 346]
- In vitro stability in human liver microsome incubations t½ [1]: >2.17 h

Compound: N#C[C@H](Cc1ccc(N2CC3CCN(C4CCOC4)C3C2)cc1F)NC(=O)[C@H]1N[C@@H]2CC[C@H]1C2 (stereo partly drawn) [Example 348]
- In vitro stability in human liver microsome incubations t½ [1]: 2.17 h
